The record followed here is ChEMBL document CHEMBL1250454, “Oral oxytocin antagonists” (J Med Chem, 2010).

The species entered for series [1] is Homo sapiens. Put plainly: Selectivity ratio of Ki for human oxytocin receptor Ki for human vasopressin V1a receptor.
Series [2] has as its system Rattus norvegicus. In words: Inhibition of oxytocin-induced uterine contraction in iv dosed non-pregnant anaesthetized rat. It counts as functional.
The target of series [3] is T1, Vasopressin V2 receptor (Homo sapiens, UniProt P30518). In words: Displacement of [3H]vasopressin from human vasopressin V2 receptor expressed in CHO cells. It counts as cell-based. A general note: In a radioligand displacement assay an active substance lowers the binding of a labelled ligand.
Series [4] addresses T2, Vasopressin V1a receptor (Homo sapiens, UniProt P37288). Put plainly: Displacement of [3H]vasopressin from human vasopressin V1a receptor expressed in CHO cells at 10 uM. It is filed as cell-based.
Series [5] addresses T3, Vasopressin V1b receptor (Homo sapiens, UniProt P47901).
T3 sequence (P47901 whole entry): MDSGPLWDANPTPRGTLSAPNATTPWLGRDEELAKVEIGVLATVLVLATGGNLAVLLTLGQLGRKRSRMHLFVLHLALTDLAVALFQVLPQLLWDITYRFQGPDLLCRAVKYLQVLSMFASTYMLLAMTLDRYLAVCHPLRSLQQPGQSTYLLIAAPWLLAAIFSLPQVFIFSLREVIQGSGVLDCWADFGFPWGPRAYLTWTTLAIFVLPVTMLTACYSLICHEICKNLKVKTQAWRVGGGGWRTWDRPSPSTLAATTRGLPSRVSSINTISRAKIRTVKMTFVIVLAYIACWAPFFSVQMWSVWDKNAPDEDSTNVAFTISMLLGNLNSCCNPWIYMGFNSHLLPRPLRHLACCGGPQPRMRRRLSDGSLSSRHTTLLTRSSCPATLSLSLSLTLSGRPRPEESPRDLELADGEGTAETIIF
In words: Displacement of [3H]vasopressin from human vasopressin V1b receptor expressed in CHO cells. It is filed as cell-based.

In series [6] the target is T4, Oxytocin receptor (Homo sapiens, UniProt P30559).
T4 sequence (P30559 whole entry): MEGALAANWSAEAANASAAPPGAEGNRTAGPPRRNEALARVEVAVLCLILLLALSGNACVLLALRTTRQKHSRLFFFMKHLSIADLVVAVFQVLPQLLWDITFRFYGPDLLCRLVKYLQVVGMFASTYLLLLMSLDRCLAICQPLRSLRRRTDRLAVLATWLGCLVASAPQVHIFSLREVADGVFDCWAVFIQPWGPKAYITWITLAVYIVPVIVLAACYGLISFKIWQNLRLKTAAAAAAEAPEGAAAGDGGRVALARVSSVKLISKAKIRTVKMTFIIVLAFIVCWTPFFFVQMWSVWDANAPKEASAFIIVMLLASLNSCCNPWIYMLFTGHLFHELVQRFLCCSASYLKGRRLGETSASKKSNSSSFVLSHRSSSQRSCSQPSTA
In words: Displacement of [3H]-oxytocin from human oxytocin receptor expressed in HEK293-EBNA cells. It counts as cell-based.

Series [7] deals with T2, Vasopressin V1a receptor. In words: Displacement of [3H]vasopressin from human vasopressin V1a receptor.
Target sequence in this assay (P37288 whole entry): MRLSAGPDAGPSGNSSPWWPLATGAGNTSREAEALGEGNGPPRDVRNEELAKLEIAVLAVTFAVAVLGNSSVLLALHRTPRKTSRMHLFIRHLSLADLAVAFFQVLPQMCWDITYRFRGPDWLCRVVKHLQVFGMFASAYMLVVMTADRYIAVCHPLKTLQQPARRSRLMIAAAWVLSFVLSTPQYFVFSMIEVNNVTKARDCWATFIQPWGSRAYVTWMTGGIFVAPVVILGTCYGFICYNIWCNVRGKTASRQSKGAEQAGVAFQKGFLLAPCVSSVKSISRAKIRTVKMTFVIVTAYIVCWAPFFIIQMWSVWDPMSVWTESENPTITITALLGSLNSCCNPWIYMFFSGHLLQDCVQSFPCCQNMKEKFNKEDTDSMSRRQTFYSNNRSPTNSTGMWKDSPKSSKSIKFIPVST
The target in series [8] is T3, Vasopressin V1b receptor. Put plainly: Displacement of [3H]vasopressin from human vasopressin V1b receptor.
Series [9] addresses T1, Vasopressin V2 receptor. In words: Displacement of [3H]vasopressin from human vasopressin V2 receptor.
Series [10] deals with T4, Oxytocin receptor. In words: Displacement of [3H]-oxytocin from human oxytocin receptor expressed in CHO cells. It is filed as cell-based.
In series [11] the target is T4, Oxytocin receptor. In words: Displacement of [3H]-oxytocin from oxytocin receptor in human uterus tissue. It counts as tissue-based.
For series [12], the species on record is Homo sapiens. In words: Selectivity ratio of Ki for human oxytocin receptor Ki for human vasopressin V2 receptor.
In series [13] the target is T5, Oxytocin receptor (Rattus norvegicus, UniProt P70536).
T5 sequence (P70536 whole entry): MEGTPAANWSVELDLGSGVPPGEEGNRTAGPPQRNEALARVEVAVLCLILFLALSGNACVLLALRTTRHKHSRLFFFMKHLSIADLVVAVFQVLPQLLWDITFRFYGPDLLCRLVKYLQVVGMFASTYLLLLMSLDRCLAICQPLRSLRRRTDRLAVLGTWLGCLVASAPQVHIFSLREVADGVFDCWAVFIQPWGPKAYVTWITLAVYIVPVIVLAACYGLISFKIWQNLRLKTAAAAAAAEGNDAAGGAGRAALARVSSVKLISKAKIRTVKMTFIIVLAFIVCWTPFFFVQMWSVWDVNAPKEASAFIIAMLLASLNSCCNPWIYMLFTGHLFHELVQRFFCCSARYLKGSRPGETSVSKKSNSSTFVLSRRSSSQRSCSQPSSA
In words: Displacement of [3H]-oxytocin from oxytocin receptor in rat uterus tissue. It counts as tissue-based.

In series [14] the target is T2, Vasopressin V1a receptor. Put plainly: Displacement of [3H]vasopressin from vasopressin V1a receptor in human liver tissue.
Target sequence in this assay (P37288 whole entry): as the sequence (P37288 whole entry) above
The target of series [15] is Vasopressin V1a receptor (Rattus norvegicus, UniProt P30560). In words: Displacement of [3H]vasopressin from vasopressin V1a receptor in rat liver tissue.
Series [16] addresses T1, Vasopressin V2 receptor. Put plainly: Displacement of [3H]vasopressin from vasopressin V2 receptor in human kidney tissue.
Series [17] addresses Vasopressin V2 receptor (Rattus norvegicus, UniProt Q00788). Put plainly: Displacement of [3H]vasopressin from vasopressin V2 receptor in rat kidney tissue.
In series [18] the test system is Rattus norvegicus. Put plainly: Inhibition of oxytocin-induced uterine contraction in iv dosed rat. It is filed as functional.
Series [19] deals with Rattus norvegicus. In words: Inhibition of oxytocin-induced uterine contraction in intraduodenally dosed rat. It counts as functional.
Series [20] is described as follows: Oral bioavailability in rat. It counts as ADME, organism-based. The following applies: in vivo.
Series [21] in a line: Oral bioavailability in chimpanzee. It counts as ADME, organism-based, Pan troglodytes. The settings on record: in vivo.
Series [22] in a line: Oral bioavailability in rhesus monkey. It is filed as ADME, organism-based, Macaca mulatta. The settings on record: in vivo.
A short description of series [23]: Aqueous solubility of the compound at pH 5. It is filed as physicochemical.
A short description of series [24]: Half life in rhesus monkey. It counts as ADME, organism-based, Macaca mulatta. The settings on record: in vivo.

In brackets after ≈: the same amount, converted by molar mass. A value given as a limit tells only on which side of the number the result lay.

T1 sequence (P30518 whole entry): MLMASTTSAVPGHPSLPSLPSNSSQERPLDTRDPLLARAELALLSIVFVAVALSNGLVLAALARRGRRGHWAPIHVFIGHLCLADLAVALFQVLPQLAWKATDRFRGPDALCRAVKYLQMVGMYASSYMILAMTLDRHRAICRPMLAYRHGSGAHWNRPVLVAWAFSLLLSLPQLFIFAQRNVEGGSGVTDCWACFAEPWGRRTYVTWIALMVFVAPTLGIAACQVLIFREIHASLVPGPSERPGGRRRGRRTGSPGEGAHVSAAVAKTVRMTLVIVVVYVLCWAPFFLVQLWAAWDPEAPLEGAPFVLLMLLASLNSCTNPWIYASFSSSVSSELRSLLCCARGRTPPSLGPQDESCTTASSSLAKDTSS
Vasopressin V2 receptor (Rattus norvegicus, UniProt Q00788), sequence (Q00788 whole entry): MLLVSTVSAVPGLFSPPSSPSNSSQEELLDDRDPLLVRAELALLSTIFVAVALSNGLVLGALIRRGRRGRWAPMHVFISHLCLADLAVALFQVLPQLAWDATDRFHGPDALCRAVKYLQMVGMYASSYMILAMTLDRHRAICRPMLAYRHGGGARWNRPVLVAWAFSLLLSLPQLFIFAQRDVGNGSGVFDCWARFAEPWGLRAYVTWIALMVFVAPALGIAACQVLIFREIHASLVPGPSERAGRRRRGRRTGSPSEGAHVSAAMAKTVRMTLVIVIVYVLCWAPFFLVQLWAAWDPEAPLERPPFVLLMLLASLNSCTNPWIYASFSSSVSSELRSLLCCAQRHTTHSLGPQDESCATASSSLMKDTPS
Vasopressin V1a receptor (Rattus norvegicus, UniProt P30560), sequence (P30560 whole entry): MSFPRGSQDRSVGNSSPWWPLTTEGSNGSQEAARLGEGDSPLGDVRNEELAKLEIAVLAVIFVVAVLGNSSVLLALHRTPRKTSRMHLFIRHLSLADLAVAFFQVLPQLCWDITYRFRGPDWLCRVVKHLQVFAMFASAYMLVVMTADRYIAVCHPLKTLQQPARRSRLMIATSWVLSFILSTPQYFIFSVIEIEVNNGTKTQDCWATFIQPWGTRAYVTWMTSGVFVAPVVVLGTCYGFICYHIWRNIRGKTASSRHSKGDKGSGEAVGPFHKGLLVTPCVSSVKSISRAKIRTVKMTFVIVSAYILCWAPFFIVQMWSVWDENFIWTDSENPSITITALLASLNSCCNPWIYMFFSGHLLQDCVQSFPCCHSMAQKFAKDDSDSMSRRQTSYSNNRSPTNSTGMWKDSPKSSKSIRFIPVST

With `CCOc1ccc(S(=O)(=O)N(CC(=O)N/N=C2\C(=O)Nc3ccccc32)c2ccc(C)cc2)cc1`, in the series filed under Homo sapiens [1], the Ratio Ki came out at 100. In the series with Rattus norvegicus [2], the ED50 (in general, the dose that gives a 50% effect, or the effect in half of the subjects) was 10 mg/kg.

As for `CCOCc1nnc(-c2ccc(OCC)c(C)c2)n1-c1ccc(OC)nc1`, the Ki (usually the equilibrium dissociation constant of an inhibitor or competing ligand from its target) at Vasopressin V2 receptor [3] is more than 10 µM; on Vasopressin V1a receptor [4], 0.549 µM; on Vasopressin V1b receptor [5] it was more than 10 µM.

With `CO/N=C1/C[C@H](c2nc(C)no2)N(C(=O)c2ccc(-c3ccccc3C)cc2)C1`, the values for the Ki at Vasopressin V1a receptor [4] and on Oxytocin receptor [6] were 0.06 µM and 0.05 µM, respectively.

With `CC(C)C[C@@H]1C(=O)N[C@H](C2Cc3ccccc3C2)C(=O)N1[C@@H](C(=O)NC(C)C)c1ccc(N(C)C)cc1`, the results for the Ki at Vasopressin V1a receptor [7], on Vasopressin V1b receptor [8] and at Vasopressin V2 receptor [9] were more than 39.8 µM, more than 50.1 µM and more than 79.4 µM, respectively.

With `CO/N=C1\C[C@@H](C(=O)NCC(O)c2ccccc2)N(C(=O)c2ccc(-c3ccccc3)cc2)C1` (some centres undefined), the IC50 (as a rule, the concentration at which inhibition is half-maximal) at Oxytocin receptor [10] was 0.26 µM. Besides, on Vasopressin V1a receptor [4], the inhibition – broadly, the percentage by which the read-out fell short of the control – came to 68%.

For `COc1ccc(-n2c(C)nnc2-c2ccc(-c3ccccc3OC)cc2)cn1`, the Ki at Vasopressin V2 receptor [3] is 0.5 µM; on Vasopressin V1a receptor [4], 0.525 µM; at Vasopressin V1b receptor [5], more than 10 µM; on Oxytocin receptor [6] it was 0.056 µM.

`COc1ccc(N(Cc2ccc(-c3ccccc3C)cn2)S(=O)(=O)c2cn(C)c(C)n2)cn1` gave a Ki on Oxytocin receptor [11] of 0.0091 µM. In addition, the Ratio Ki in the series filed under Homo sapiens [1] turned out to be 80; in the series listed under Homo sapiens [12], 15700.

Turning to `COc1cc(OC2CCN(Cc3ccc[n+]([O-])c3C)CC2)ccc1C(=O)N1CCC(N2C(=O)OCc3ccccc32)CC1`, the inhibition constant (Ki) at Oxytocin receptor [11] is 0.0049 µM; at Oxytocin receptor [13], 0.014 µM; on Vasopressin V1a receptor [14], 3.2 µM; at Vasopressin V1a receptor [15], 0.00076 µM; on Vasopressin V2 receptor [16], 28 µM; on Vasopressin V2 receptor [17], 9.7 µM. Moreover, the results for the AD50 in the series with Rattus norvegicus [18] and with Rattus norvegicus [19] were 0.78 mg/kg and 2.5 mg/kg, respectively. For the same compound, the bioavailability (commonly dose-corrected exposure relative to a reference, in per cent) in series [20] was determined as 80%; in [21], 90%; in series [22], 36%. Besides, the results for the Ratio Ki in the series listed under Homo sapiens [1] and in the series listed under Homo sapiens [12] were 650 and more than 5700, respectively. Further, the solubility (usually the concentration that dissolves in the medium under given conditions) in series [23] was 10 mg/mL (≈ 17 mM). In series [24], the half-life (as a rule, how long it takes for the measured level to halve) was 2 h.

As to `CC[C@H](C)[C@@H]1C(=O)N[C@H](C2Cc3ccccc3C2)C(=O)N1[C@@H](C(=O)N1CCOCC1)c1coc(C)n1` [RETOSIBAN], the bioavailability in [20] was 100%.

In turn, `O=C(Cn1cc(C(F)(F)F)ccc1=O)NCc1cc2cc(C(=O)N3CCC(N4C(=O)OCc5ccccc54)CC3)ccc2o1` displayed a Ki on Vasopressin V2 receptor [16] of more than 3 µM. Also, the results for the Ratio Ki in the series listed under Homo sapiens [1] and in the series filed under Homo sapiens [12] were 630 and more than 1500, respectively. Also, in series [21], the bioavailability was found to be 51%.

Turning to `CC1(C)[C@@H]2CC[C@@]1(CS(=O)(=O)N1CCC3(C=Cc4ccccc43)CC1)[C@@](O)(CC(=O)O)C2`, the Ki at Oxytocin receptor [11] came out at 0.53 µM; on Oxytocin receptor [13] it was 0.37 µM; on Vasopressin V1a receptor [14], 1.6 µM; on Vasopressin V1a receptor [15], 26 µM; on Vasopressin V2 receptor [16], 5.6 µM; at Vasopressin V2 receptor [17] it was 29 µM. Besides, the AD50 in the series on Rattus norvegicus [18] came out at 10 mg/kg; with Rattus norvegicus [19], 30 mg/kg. For the same compound, the results for the Ratio Ki in the series filed under Homo sapiens [1] and in the series filed under Homo sapiens [12] were 3 and 11, respectively.
